Target: T1, H3R membranes (H3R8-expressing HEK293 cell line) (Homo sapiens, UniProt Q9Y5N1)
T1 construct: expressed in transfected cells; membranes
Assay: [35S] GTPγ[S] binding assay, antagonist activity in the presence of agonist R(-)alpha methylhistamine
Type: biochemical
Conditions: inhibition of [35S]GTPγS binding to H3R membranes in presence of agonist
Description: Membranes isolated as described in (Preparation of Histamine Receptor Subtype Membranes) were used in a [35S]GTPχS functional assay. Binding of [35S]GTPχS to membranes indicates agonist activity. Compounds of the invention of Formula I or Formula II were tested for their ability to inhibit binding in the presence of agonists. Alternately, the same transfected cell lines were used for a cAMP assay wherein H3R agonists inhibited forskolin-activated synthesis of cAMP. Compounds of Formula I or Formula II were tested for their ability to permit forskolin-stimulated cAMP synthesis in the presence of agonist.
Antagonist activity of selected compounds was tested for inhibition of [35S] GTP γ [S] binding to H3R membranes in the presence of agonists. Assays were run at room temperature in 20 mM HEPES, 100 mM NaCl, 5 mM MgCl2 and 10 uM GDP at pH 7.4 in a final volume of 200 ul in 96-well Costar plates. Membranes isolated from H3R8-expressing HEK293 cell line (20 ug/well) and GDP were added to each well in a volume of 50 μl assay buffer. Antagonist was then added to the wells in a volume of 50 μl assay buffer and incubated for 15 minutes at room temperature. […] Plates were counted in Wallac Trilux 1450 Microbeta scintillation counter for 1 minute. […]

T1 sequence (Q9Y5N1 whole entry): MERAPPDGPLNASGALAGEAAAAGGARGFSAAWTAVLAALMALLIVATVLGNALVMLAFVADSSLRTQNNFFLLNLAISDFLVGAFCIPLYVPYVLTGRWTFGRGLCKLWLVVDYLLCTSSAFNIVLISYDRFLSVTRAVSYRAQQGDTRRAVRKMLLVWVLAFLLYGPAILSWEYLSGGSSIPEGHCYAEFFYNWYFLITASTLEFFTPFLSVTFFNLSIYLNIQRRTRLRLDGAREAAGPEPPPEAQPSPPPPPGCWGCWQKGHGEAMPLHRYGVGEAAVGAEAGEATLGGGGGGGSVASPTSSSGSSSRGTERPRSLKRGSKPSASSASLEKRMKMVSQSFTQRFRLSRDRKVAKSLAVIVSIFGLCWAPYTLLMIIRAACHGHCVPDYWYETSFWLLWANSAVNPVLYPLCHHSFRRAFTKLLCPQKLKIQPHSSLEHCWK

## O=C(c1ccc(-c2ccccn2)cc1)N1CCC[C@H]1CN1CCCC1
  Ki: 49 nM

From US8008301B2, “Histamine H3 receptor agents, preparation and therapeutic uses” (Eli Lilly and Company, priority 2004, dated 2011)
